Data set [1] has as its system C3H kidney allografts in presensitized BALB/c recipients. An excerpt: Animals Male adult C3H (H-2^k) mice and BALB/c (H-2^d mice (Jackson Labs, Bar Harbor, Me.) weighing 25-30 g were chosen as donors and recipients, respectively. Animals were housed under conventional conditions at the Animal Care Facility, The University of Western Ontario, and were cared for in accordance with the guidelines established by the Canadian Council on Animal Care.
Skin Presensitization Full-thickness skin grafts taken from C3H donors were cut into 1×1 cm^2 pieces and transplanted onto the backs of BALB/c recipient mice. Rejection was defined as complete necrosis of the skin grafts.
The donor ureter was also sutured to the recipient bladder using 10-0 sutures. The native kidneys were removed immediately after grafting. Graft rejection leading to host death was used as the endpoint of rejection for kidney transplants.
Measurement of Serum Creatinine Serum samples were obtained at study endpoint (time of rejection or POD100) after kidney transplantation. Serum creatinine levels were quantitated in 10 μL samples using the Sigma Diagnostics (Sigma, St. Louis, Mo.) procedure, which measures creatinine by a kinetic modification of the Jaffe reaction (Junge et al., 2004). Graft Histology At necropsy, tissue samples were processed for hematoxylin and eosin (H&E) staining (Wang et al, JI 2003) and evaluated for vasculitis, thrombosis, hemorrhage and lymphocyte infiltration; changes were scored as: 0, none; 1, minimal; 2, mild; 3, moderate or 4, marked compared to normal tissues.

For data set [2] the test system is unchanged. Kind of data set: Immunoperoxidase staining of kidney allografts in presensitized mouse recipients at necropsy. Format: in vivo. On the set-up: key: 0, negative; 1+, equivocal; 2+, weak; 3+, moderate; 4+, intense. The following applies: kidney allograft, at the time of rejection. An excerpt:
Immunohistochemistry Tissue samples embedded in Optimum Cutting Temperature (O.C.T.) gel (Skura Finetek, Torrance, Calif.) were sectioned and stained for CD4^+, CD8^+ and Mac-1^+ infiltrating cells and for IgG, IgM, C3 and C5 deposition using an Elite Vectastain ABC kit (Vector Laboratories Inc., Burlingame, Calif.). Primary biotinylated antibodies included anti-CD4 (YTS 191.1.2, Cedarlane Laboratories Ltd., Hornby, Ontario, Canada), anti-CD8 (53-6.7, BD Biosciences, Franklin Lakes, N.J.) and anti-Mac-1 (Cedarlane). Intragraft IgG and IgM deposition was detected using biotinylated goat anti-mouse-IgG and goat anti-mouse-IgM (Cedarlane). Complement deposition was detected following serial incubation with goat anti-mouse C3 or anti-mouse C5 polyclonal Abs (Quidel, San Diego, Calif.), biotinylated rabbit anti-goat IgG (Vector Laboratories), and HRP-conjugated-streptavidin (Zymed Laboratories, South San Francisco, Calif.). Negative controls were performed by omitting the primary antibodies. The immunostaining was scored in five high-power fields of each section using tissue samples from five animals per experimental group. Immunoreactivity was graded from 0 to 4+ according to staining intensity as follows: 0, negative; 1+, equivocal; 2+, weak; 3+, moderate; and 4+, very intensive staining.

The subject of data set [3] is terminal complement activity. As to the kind of experiment: Complement hemolytic assay of recipient mouse sera (kidney model). It is filed as in vivo. The following applies: POD7, presensitized kidney recipients, FIG. 12. As to the method:
Complement Hemolytic Assay Terminal complement activity in recipient mouse sera was determined by standard methods to assess the ability of sera to lyse chicken erythrocytes presensitized with erythrocyte-specific antibodies as previously described (Wang et al., 1999).

For data set [4], the system named is circulating anti-donor IgG and IgM antibodies. As to the kind of experiment: Flow cytometry of circulating anti-donor antibodies (kidney model). Format: in vivo, mouse. As to the method: Flow Cytometry Circulating anti-donor specific IgG and IgM antibodies were evaluated in recipient sera by flow cytometry. Briefly, C3H mouse splenocytes were isolated and incubated at 37° C. for 30 minutes with serum samples obtained at the indicated timepoints from mice from the various treatment groups. To stain for total IgG or specific antibody subclasses, the washed cells were incubated with FITC-conjugated goat anti-mouse antibodies specific for the Fc portion of mouse IgG, mouse IgG1, mouse IgG2a, mouse IgG2b or mouse IgG3 (all from (CALTAG Laboratories, Burlingame, Calif.) or with a phycoerythrin-conjugated goat antibody specific for mouse IgM (Jackson ImmunoResearch Laboratories, West Grove, Pa.) for 1 hour at 4° C., washed and analyzed on a FACScan flow cytometer (Becton Dickinson, Mountain View, Calif.) (Collins et al., 1999; Pratt et al., 1996). The results are expressed as mean channel fluorescence intensity as a measure of the level of each anti-donor isotype in the samples.
Background: A flow cytometer gives signals particle by particle.

Data set [5] concerns Bcl-2 and Bcl-xl proteins. Kind of data set: Western blot of kidney grafts. Format: in vivo, mouse. To be noted: POD100 (accommodated) or rejected grafts, FIG. 14. An excerpt: Western Blot Analysis Frozen kidney samples were sonicated, separated by electrophoresis and transferred to polyvinylidene difluoride (PVDF; Invitrogen) membranes. Intragraft expression of Bcl-2 and Bcl-XS/L was detected using the polyclonal sera N-19 and M-125, respectively (Santa Cruz Biotechnology, Inc.). Polyclonal anti-calsequestrin (Calbiochem) served as a sample loading control (Kobayashi et al., 1999). Antibody binding was detected by horseradish-peroxidase-conjugated goat anti-rabbit IgG and enhanced chemiluminescence development (Roche Laboratories) (Arp et al., 1996).
(In western blotting, separated proteins are transferred to a membrane and probed.)

The subject of data set [6] is cardiac allograft in presensitized rats. To be noted: cyclosporin A 10 mg/kg/day i.m., sCR1 15 mg/kg single i.v. bolus; cited from earlier work.

On to `C[C@@H](N)CCNCCCCNC(=O)OCC(=O)NCCCCCCNC(=N)N` [LF, LF15-0195], for which the nephrotoxicity entry in data set [1] (kidney allograft model development) is “not associated with nephrotoxicity”. Moreover, the “kidney graft survival (time to rejection)” value in data set [1] (presensitized recipients, FIG. 11A) came out at 6.0 ± 1.0 days. In addition, in data set [2], the C3 immunoperoxidase staining is given as 3+, the C5 immunoperoxidase staining is on record as 3+, the IgG immunoperoxidase staining is reported as 3+ and the IgM immunoperoxidase staining was 1+. Also, the Mac-1 immunoperoxidase staining in data set [2] is on record as 4+. The “terminal/serum complement activity (in vitro serum hemolytic assay)” value in data set [3] was “no inhibitory effect”. Also, the “circulating anti-donor IgG levels” value in data set [4] (kidney recipients at time of rejection, triple-therapy POD 100, FIG. 13A) is “partially reduced”. Moreover, the “predominant anti-donor IgG subclass” value in data set [4] (presensitized kidney recipients, FIG. 13B) is “IgG1, IgG2a and IgG3”. Also, the “expression of Bcl-2 and Bcl-xl proteins in kidney grafts” value in data set [5] is reported as “undetectable”.
For the molecule “sCR1: soluble complement receptor 1, binds complements C3b and C4b”, the “average time of graft rejection” value in data set [6] was 44 days.
